From patent publication US9976149B2, “Modified listeria bacteria and uses thereof” (priority 2014, dated 2018)
Converted amounts (≈) assume the structure as drawn.

Experiments:
[1] = tested on: WT L. monocytogenes; experiment: Growth curves in BHI with added cyclic dinucleotide, WT bacteria; format: cell-based, Listeria monocytogenes; settings: for effect on growth in the absence of vancomycin stress: BHI, dinucleotide 3 μg ml^−1; for effect on growth in the presence of vancomycin: vancomycin 1 μg ml^−1, dinucleotide 3 μg ml^−1
Protocol: (§1) Overnight cultures were adjusted to 0.03 O.D.600 in 20 ml fresh BHI broth, supplemented when indicated with 0.25 mM IPTG, 0.08 μg ml^−1 penicillin G, 1 μg ml^−1 vancomycin or 3 μg ml^−1 c-di-AMP. For bacterial RNA extraction, bacteria were grown at 37° C. to O.D.600 0.4, then supplemented with 3 μg ml^−1 lincomycin, 50 μM rhodamine 6 G (R6G), 1 μg ml^−1 vancomycin, 0.08 μg ml^−1 penicillin G for 2 h; or centrifuged and resuspended in minimal media pH 5 (lactic acid), minimal media with 10 mM H2O2, or defined minimal media pH 5 with 10 mM H2O2 for 30 mM For microscopy bacteria were grown similarly and supplemented with 1 μg ml^−1 vancomycin for 2 h. Growth curves in the presence of drugs were performed in a Synergy HT BIOTEK® plate reader at 37° C. with continuous shaking following O.D.600 every 15 min for 24 h. Of note, bacterial growth in the plate reader is different than in flasks in respect to the O.D. levels that are measured. In each experiment, growth conditions are indicated.

[2] = tested on: ΔmdrMTAC mutant; experiment: Growth curves in BHI with added cyclic dinucleotide, ΔmdrMTAC mutant; format: cell-based, Listeria monocytogenes; settings: for effect on growth in the absence of vancomycin stress: BHI, dinucleotide 3 μg ml^−1; for effect on growth in the presence of vancomycin: vancomycin 1 μg ml^−1, dinucleotide 3 μg ml^−1
Protocol: as §1

[3] = tested on: ΔmdrMTAC; experiment: Minimal inhibitory concentration for ΔmdrMTAC; format: cell-based; settings: Listeria monocytogenes, read-out: minimal inhibitory concentration
[4] = tested on: WT bacteria; experiment: Minimal inhibitory concentration for WT bacteria; format: cell-based; settings: Listeria monocytogenes
Protocol: as §1

[5] = tested on: dacA gene transcription in WT bacteria; experiment: RT-qPCR of dacA transcription upon vancomycin treatment, WT bacteria; format: cell-based, Listeria monocytogenes
Protocol: as §1, with “[…];” for “1 μg ml^−1 vancomycin, 0.08 μg ml^−1 penicillin G for 2 h;”
RNA was purified from bacteria in mid-log growth in BHI or from infected cells using standard phenol-chloroform extraction methods. RNA from intracellularly grown bacteria was amplified using MESSAGEAMP™ II (AMBION™) bacterial RNA amplification kit according to the manufacturer's instructions. RNA of infected macrophages was extracted using TRIZOL® reagent according to standard protocols. […]

[6] = tested on: WT bacteria; experiment: TEM sections, cell wall thickness under vancomycin treatment, WT bacteria; format: cell-based, Listeria monocytogenes; settings: vancomycin 1 μg ml^−1 for 2 h
Protocol: as §1
Bacteria were grown as described above with and without vancomycin treatment. For negative staining, PBS washed bacteria were adsorbed on formvar/carbon coated grids and stained with 2% aqueous uranyl acetate. For TEM sections, a bacterial pellet from 20 ml of culture was fixed in 2.5% glutaraldehyde in PBS at 4° C. for 20 h, washed three times with PBS and post-fixed in 1% OsO4 in PBS at 4° C. for 2 h. […]

Row | Compound | effect on growth in the absence of vancomycin stress [1] | effect on growth in the presence of vancomycin [1] | effect on growth in the absence of vancomycin stress [2] | effect on growth in the presence of vancomycin [2] | MIC [3] | MIC [4] | dacA transcription level in comparison to non-treated bacteria ([5]; sub-lethal vancomycin 1 μg ml^−1) | dacA transcription level in comparison to non-treated bacteria ([5]; vancomycin 20 μg ml^−1 for 10 minutes) | cell wall thickness, average [6]
1 | Nc1ncnc2c1ncn2[C@@H]1O[C@@H]2COP(=O)(O)O[C@H]3[C@@H](O)[C@H](n4cnc5c(N)ncnc54)O[C@@H]3COP(=O)(O)O[C@H]2[C@H]1O [c-di-AMP, cyclic-di-adenosine monophosphate] | no effect | shorter lag phase | no effect | shorter lag phase |  |  |  |  | 
2 | Nc1nc2c(ncn2[C@@H]2O[C@@H]3COP(=O)(O)O[C@H]4[C@@H](O)[C@H](n5cnc6c(=O)[nH]c(N)nc65)O[C@@H]4COP(=O)(O)O[C@H]3[C@H]2O)c(=O)[nH]1 [c-di-GMP] | no effect | no effect | no effect | no effect |  |  |  |  | 
3 | CC1(C)S[C@@H]2[C@H](NC(=O)Cc3ccccc3)C(=O)N2[C@H]1C(=O)O [penicillin, penicillin G] |  |  |  |  | 0.08 µg/mL (≈ 0.239 µM) | 0.15 µg/mL |  |  | 
4 | CN[C@H](CC(C)C)C(=O)N[C@H]1C(=O)N[C@@H](CC(N)=O)C(=O)N[C@H]2C(=O)N[C@H]3C(=O)N[C@H](C(=O)N[C@H](C(=O)O)c4cc(O)cc(O)c4-c4cc3ccc4O)[C@H](O)c3ccc(c(Cl)c3)Oc3cc2cc(c3O[C@@H]2O[C@H](CO)[C@@H](O)[C@H](O)[C@H]2O[C@H]2C[C@](C)(N)[C@H](O)[C@H](C)O2)Oc2ccc(cc2Cl)[C@H]1O [vancomycin] |  |  |  |  | 1.5 µg/mL (≈ 1.04 µM) | 2 µg/mL | 1.5 fold | 4.5 fold | 35 nm
